Measurements from US8329686B2, “Isatin analogues and uses therefor” (Washington University, priority 2006, dated 2012).
Like-named read-outs stand apart in the source and are kept apart here.

What was measured:
caspase-3 [1] = molecular target: T1, caspase-3 (Homo sapiens, UniProt P42574); assay: Enzyme inhibition assay, caspase 3 (fluorogenic Ac-DEVD-AMC); type: biochemical
T1 construct: purchased Sigma-Aldrich (St. Louis, Mo.)
T1 sequence (P42574 29-175 limits assumed): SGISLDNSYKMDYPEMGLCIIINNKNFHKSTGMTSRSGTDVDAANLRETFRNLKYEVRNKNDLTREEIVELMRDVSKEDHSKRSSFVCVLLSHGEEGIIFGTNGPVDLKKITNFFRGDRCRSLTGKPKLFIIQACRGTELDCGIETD
T1 sequence (P42574 176-277 limits assumed): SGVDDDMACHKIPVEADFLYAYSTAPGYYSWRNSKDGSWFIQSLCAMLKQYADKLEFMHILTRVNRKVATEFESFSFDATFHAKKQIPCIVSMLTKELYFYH

caspase 1 = molecular target: T2, caspase 1 (Homo sapiens, UniProt P29466); assay: Enzyme inhibition assay, caspase 1 (fluorogenic Ac-YVAD-AMC); type: biochemical
T2 construct: purchased BIOMOL Research Laboratories (Plymouth Meeting, Pa.)
T2 sequence (P29466 120-297 limits assumed): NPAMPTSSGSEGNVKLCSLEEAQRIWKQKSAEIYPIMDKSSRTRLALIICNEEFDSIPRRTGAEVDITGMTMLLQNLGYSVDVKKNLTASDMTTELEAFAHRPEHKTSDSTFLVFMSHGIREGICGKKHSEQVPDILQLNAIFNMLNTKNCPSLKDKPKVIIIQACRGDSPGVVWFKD
T2 sequence (P29466 317-404 limits assumed): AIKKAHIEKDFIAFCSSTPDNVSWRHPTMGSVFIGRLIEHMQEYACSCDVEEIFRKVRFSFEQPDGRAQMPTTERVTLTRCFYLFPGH

caspase 8 = molecular target: T3, caspase 8 (Homo sapiens, UniProt Q14790); assay: Enzyme inhibition assay, caspase 8 (fluorogenic Ac-IETD-AMC); type: biochemical
T3 construct: purchased Sigma-Aldrich (St. Louis, Mo.)
T3 sequence (Q14790 217-374 limits assumed): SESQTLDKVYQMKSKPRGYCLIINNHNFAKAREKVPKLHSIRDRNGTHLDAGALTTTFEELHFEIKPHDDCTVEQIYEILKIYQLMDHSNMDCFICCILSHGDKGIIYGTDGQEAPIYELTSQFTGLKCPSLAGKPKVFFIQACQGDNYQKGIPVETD
T3 sequence (Q14790 385-479 limits assumed): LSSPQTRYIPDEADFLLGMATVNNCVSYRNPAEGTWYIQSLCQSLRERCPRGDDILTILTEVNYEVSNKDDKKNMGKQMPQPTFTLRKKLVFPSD
Protocol: (§1) Enzyme Assays. Inhibition of recombinant human caspase-3 and other caspases by the isatin analogues was assessed using a fluorometric assay by measuring the accumulation of a fluorogenic product, 7-amino-4-methylcoumarin (7-AMC).
(§2) Enzyme Inhibition Assays. Recombinant human caspases (3, 6, 7, and 8) and their peptide-specific substrates (Ac-DEVDAMC, Ac-VEID-AMC, Ac-DEVD-AMC, and Ac-IETD-AMC, respectively) were purchased from Sigma-Aldrich (St. Louis, Mo.) with the exception of caspase 1 and its substrate (Ac-YVAD-AMC), which were obtained from BIOMOL Research Laboratories (Plymouth Meeting, Pa.). The enzymatic activity of caspases was determined by measuring the accumulation of the fluorogenic product 7-amino-4-methylcoumarin (AMC). All assays were prepared in 96-well format at a volume of 210 μL per well and consisted of 100 mM Na+ HEPES (pH 7.4), 10% sucrose, 100 mM NaCl, 0.1% CHAPS, 5 mM 2-mercaptoethanol, 2 mM EDTA, 10 μM Ac-YVAD-AMC (caspase 1); 20 mMNa^+ HEPES (pH 7.4), 10% sucrose, 100 mMNaCl, 0.1% CHAPS, 2 mM EDTA, 10 μM Ac-DEVD-AMC (caspase 3); 20 mM Na^+ HEPES (pH 7.4), 10% sucrose, 100 mM NaCl, 0.1% CHAPS, 2 mM EDTA, 10 μM Ac-VEID-AMC (caspase 6); 20 mM Na+ HEPES (pH 7.4), 100 mM NaCl, 10% sucrose, 0.1% CHAPS, 5 mM 2-mercaptoethanol, 2 mM EDTA, 10 μM Ac-DEVD-AMC (caspase 7); 20 mM Na+ HEPES (pH 7.4), 10% sucrose, 100 mM NaCl, 0.1% CHAPS, 2 mM EDTA, 10 μM Ac-IETD-AMC (caspase 8).
(§3) Recombinant caspases were first assayed to determine the optimal concentration for each experiment. Optimal concentrations were based in the linear range of the enzyme activation curves. Peptide inhibitors with known IC50 values were tested together with the compounds as a control for each caspase assay. […] Peptide and nonpeptide inhibitors were dissolved in DMSO, and a 2 serial dilution was performed prior to screening in order to obtain desired concentrations. 10 μL was added to each well containing 100 μL caspase solution and allowed to incubate on ice for 30 min. […] The final concentration of DMSO in all wells was 5% of the total volume. In caspase-1 and caspase-7 assays, 10 mM 2-mercaptoethanol was added to the substrate solution for full activation of the enzymes.
(§4) Compounds were tested in duplicate, and IC50 curves were calculated for all inhibitors assayed. Final IC50s were the average of three independent experiments.

caspase 6 = molecular target: T4, caspase 6 (Homo sapiens, UniProt P55212); assay: Enzyme inhibition assay, caspase 6 (fluorogenic Ac-VEID-AMC); type: biochemical
T4 construct: purchased Sigma-Aldrich (St. Louis, Mo.)
T4 sequence (P55212 24-179 limits assumed): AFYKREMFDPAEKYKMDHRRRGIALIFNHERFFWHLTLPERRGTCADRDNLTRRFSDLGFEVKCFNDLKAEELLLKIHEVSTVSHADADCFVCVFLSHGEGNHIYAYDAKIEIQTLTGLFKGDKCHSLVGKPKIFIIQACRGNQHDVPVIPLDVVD
T4 sequence (P55212 194-293 limits assumed): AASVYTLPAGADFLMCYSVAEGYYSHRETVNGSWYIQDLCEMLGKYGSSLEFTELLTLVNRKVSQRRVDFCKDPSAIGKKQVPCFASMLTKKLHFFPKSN
Protocol: as §1, §2, §3, §4

caspase-3 [2] = molecular target: T1, caspase-3; assay: Reversibility assay (gel filtration); type: biochemical
Protocol: Then the mixtures were run through the gel filtration column (Bio-Spin 6 Tris columns from Bio-Rad Laboratories, Hercules, Calif.) to remove the free compounds according to the manufacture's instruction. Briefly, 50 μl of the incubation mixture was loaded on the top of the column. The column was then centrifuged at 1000×g for 4 min at 4° C. The resulting elutant was designated as elutant A (for no treatment sample), B (for Z-DEVD-FMK-treated sample) or C (for 30d-treated sample). The elutant was assayed for caspase 3 activity as described in enzyme inhibition assays above. Briefly, 40 μl of the elutant, 60 μl assay buffer and 100 μl substrate (10 μM Ac-DEVD-AMC) were incubated for 1 hour at 37° C. Amount of AMC released was determined using a Victor microplate fluorometer. The recovered caspase-3 activity after gel filtration (%) was calculated.

caspase 7 = molecular target: T5, caspase 7 (Homo sapiens, UniProt P55210); assay: Enzyme inhibition assay, caspase 7 (fluorogenic Ac-DEVD-AMC); type: biochemical
T5 construct: purchased Sigma-Aldrich (St. Louis, Mo.)
T5 sequence (P55210 24-198 limits assumed): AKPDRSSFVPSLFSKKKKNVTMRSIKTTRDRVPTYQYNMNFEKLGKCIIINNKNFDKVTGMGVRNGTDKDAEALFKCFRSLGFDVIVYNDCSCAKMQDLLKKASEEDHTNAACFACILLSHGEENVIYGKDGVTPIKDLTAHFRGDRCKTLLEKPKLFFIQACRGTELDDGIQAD
T5 sequence (P55210 207-303 limits assumed): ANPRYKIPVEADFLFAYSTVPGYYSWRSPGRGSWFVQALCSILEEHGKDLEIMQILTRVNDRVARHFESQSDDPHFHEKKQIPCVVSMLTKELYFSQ

[3] = Biodistribution of [^18F]WC-II-89 in normal and cycloheximide-treated rats; type: in vivo, Sprague-Dawley rats
Protocol: All animal studies were performed in accordance with the regulations of the Washington University Institutional Animal Care and Use Committee. Mature male Sprague Dawley rats from Charles River Laboratories were briefly anesthetized with 1-2% isoflurane in oxygen. […] Treated rats also received 5 mg/kg cycloheximide in saline via the tail vein three hours prior to radiotracer administration in order to induce caspase-mediated liver apoptosis. At set time-points following radiopharmaceutical injection, rats were again anesthetized and euthanized. Target and non-target organs were removed, weighed, and the radioactivity was counted using a Beckman Gamma 8000 well counter. Standard dilutions of the injected dose were counted along with the samples and uptake was calculated and reported as percent injected dose per gram (% ID/g).
This model, which uses the protein synthesis inhibitor, cycloheximide (CHX), was previously used in the evaluation of radiolabeled annexin V analogs (37). Tissue morphology and TUNEL staining studies have shown that cycloheximide induces apoptosis in rat liver in both a dose-dependent and time-dependent manner. Within 3 hours of treatment with 1.5, 3, or 10 mg of cycloheximide per kilogram of body weight, apoptosis was induced in rat liver (35, 36). Therefore, we chose 3 hours treatment of 5 mg/kg to induce the maximum apoptosis in rat liver, expecting a high level of caspase-3 activation.
In general, the initial uptake was higher for CHX treated rats than control rats. However, the difference between control and treated rats was reduced with time with the exception of the liver and spleen.

[4] = MicroPET imaging of [^18F]WC-II-89 in control and cycloheximide-treated rat; type: in vivo; details: cycloheximide 3-hour pretreated rat versus control, 10-60 minutes post-i.v. injection
Protocol: MicroPET imaging studies were performed using a MicroPET Focus 220 and MicroPET Focus 120 scanner (Siemens/CTI, Knoxyille, Tenn.). A control and cycloheximide-treated (5 mg/kg, 3 hours pretreated) rat were anesthetized and a catheter inserted in the jugular vein. […] MicroPET images were reconstructed with OSEM-2D data analysis software package (Siemens/CTI, Knoxyille, Tenn.).
This was also confirmed by Western blot analysis of the rat livers following completion of the microPET imaging study.

COc1ccc(CN2C(=O)C(=C(C#N)C#N)c3cc(S(=O)(=O)N4CCCC4COc4cccnc4)ccc32)cc1 (centres unmarked) [Compound 30d, 2-{1-(4-Methoxy-benzyl)-2-oxo-5-[2-(pyridin-3-yloxymethyl)-pyrrolidine-1-sulfonyl]-1,2-dihydro-indol-3-yl-idene}-malononitrile]
IC50 (caspase-3 [1]; IC50 (nM) Casp-3, Table 7): 7.8 ± 1.5 nM
IC50 (caspase-3 [1]; IC50 (nM) Caspase 3, Table 2): 7.8 ± 1.5 nM
IC50 (caspase-3 [1]; IC50 for caspase-3): 7.8 nM
IC50 (caspase 1): 3900 nM
IC50 (caspase 1; IC50 (nM) Casp-1, Table 7): 3900 ± 530 nM
IC50 (caspase 1; read-out: IC50 for caspase-1): 2700 to 3200 nM
IC50 (caspase 8; Table 2, read-out: IC50 (nM) Caspase 8): > 50000 nM
IC50 (caspase 8; Table 7, read-out: IC50 (nM) Casp-8): > 50000 nM
IC50 (caspase 8; read-out: IC50 for caspase-8): > 50000 nM
IC50 (caspase 6): 610 ± 113 nM
IC50 (caspase 6; read-out: IC50 for caspase-6): 515 to 770 nM
caspase 3 activity after incubation with inhibitor (caspase-3 [2]; 3 μM, 1 hour on ice, before gel filtration): fully inhibited
recovered caspase-3 activity after gel filtration (caspase-3 [2]; elutant compared to untreated elutant A): full caspase 3 activity
IC50 (caspase 7; IC50 (nM) Casp-7, Table 7): 29.6 ± 1.4 nM
IC50 (caspase 7; IC50 (nM) Caspase 7, Table 2): 29.6 ± 1.4 nM
IC50 (caspase 7; read-out: IC50 for caspase-7): 15.1 nM

O=C1C(=O)N(Cc2ccc(OCC[18F])cc2)c2ccc(S(=O)(=O)N3CCC[C@H]3COc3ccccc3)cc21 [[^18F]WC-II-89]
% I.D./gram ([3]; blood, control rats, 5 min.): 2.70 ± 0.21 % I.D./gram
% I.D./gram ([3]; blood, control rats, 1 hr.): 0.11 ± 0.01 % I.D./gram
% I.D./gram ([3]; blood, control rats, 2 hr.): 0.06 ± 0.01 % I.D./gram
% I.D./gram ([3]; blood, cycloheximide-treated rats, 5 min.): 3.66 ± 0.40 % I.D./gram
% I.D./gram ([3]; blood, cycloheximide-treated rats, 1 hr.): 0.16 ± 0.01 % I.D./gram
% I.D./gram ([3]; blood, cycloheximide-treated rats, 2 hr.): 0.07 ± 0.00 % I.D./gram
% I.D./gram ([3]; bone, control rats, 5 min.): 0.44 ± 0.04 % I.D./gram
% I.D./gram ([3]; bone, control rats, 1 hr.): 0.13 ± 0.02 % I.D./gram
% I.D./gram ([3]; bone, control rats, 2 hr.): 0.15 ± 0.06 % I.D./gram
% I.D./gram ([3]; bone, cycloheximide-treated rats, 5 min.): 0.66 ± 0.06 % I.D./gram
% I.D./gram ([3]; bone, cycloheximide-treated rats, 1 hr.): 0.12 ± 0.01 % I.D./gram
% I.D./gram ([3]; bone, cycloheximide-treated rats, 2 hr.): 0.13 ± 0.03 % I.D./gram
uptake of radioactivity in bone ([3]; bone, defluorination): very low uptake
% I.D./gram ([3]; fat, control rats, 5 min.): 0.12 ± 0.02 % I.D./gram
% I.D./gram ([3]; fat, control rats, 1 hr.): 0.15 ± 0.02 % I.D./gram
% I.D./gram ([3]; fat, control rats, 2 hr.): 0.07 ± 0.01 % I.D./gram
% I.D./gram ([3]; fat, cycloheximide-treated rats, 5 min.): 0.09 ± 0.03 % I.D./gram
% I.D./gram ([3]; fat, cycloheximide-treated rats, 1 hr.): 0.14 ± 0.01 % I.D./gram
% I.D./gram ([3]; fat, cycloheximide-treated rats, 2 hr.): 0.09 ± 0.01 % I.D./gram
% I.D./gram ([3]; kidney, control rats, 5 min.): 1.25 ± 0.14 % I.D./gram
% I.D./gram ([3]; kidney, control rats, 1 hr.): 0.53 ± 0.07 % I.D./gram
% I.D./gram ([3]; kidney, control rats, 2 hr.): 0.18 ± 0.04 % I.D./gram
% I.D./gram ([3]; kidney, cycloheximide-treated rats, 5 min.): 1.18 ± 0.08 % I.D./gram
% I.D./gram ([3]; kidney, cycloheximide-treated rats, 1 hr.): 0.55 ± 0.05 % I.D./gram
% I.D./gram ([3]; kidney, cycloheximide-treated rats, 2 hr.): 0.23 ± 0.05 % I.D./gram
uptake in liver, treated rats higher than control ([3]; liver, 1-hour post-i.v. injection, cycloheximide-treated vs control): 94%
% I.D./gram ([3]; liver, control rats, 5 min.): 3.13 ± 0.26 % I.D./gram
% I.D./gram ([3]; liver, control rats, 1 hr.): 0.38 ± 0.06 % I.D./gram
% I.D./gram ([3]; liver, control rats, 2 hr.): 0.16 ± 0.02 % I.D./gram
% I.D./gram ([3]; liver, cycloheximide-treated rats, 5 min.): 4.02 ± 0.45 % I.D./gram
% I.D./gram ([3]; liver, cycloheximide-treated rats, 1 hr.): 0.73 ± 0.12 % I.D./gram
% I.D./gram ([3]; liver, cycloheximide-treated rats, 2 hr.): 0.22 ± 0.03 % I.D./gram
% I.D./gram ([3]; lung, control rats, 5 min.): 1.42 ± 0.34 % I.D./gram
% I.D./gram ([3]; lung, control rats, 1 hr.): 0.18 ± 0.03 % I.D./gram
% I.D./gram ([3]; lung, control rats, 2 hr.): 0.08 ± 0.01 % I.D./gram
% I.D./gram ([3]; lung, cycloheximide-treated rats, 5 min.): 2.08 ± 0.23 % I.D./gram
% I.D./gram ([3]; lung, cycloheximide-treated rats, 1 hr.): 0.23 ± 0.03 % I.D./gram
% I.D./gram ([3]; lung, cycloheximide-treated rats, 2 hr.): 0.11 ± 0.02 % I.D./gram
% I.D./gram ([3]; muscle, control rats, 5 min.): 0.14 ± 0.01 % I.D./gram
% I.D./gram ([3]; muscle, control rats, 1 hr.): 0.08 ± 0.01 % I.D./gram
% I.D./gram ([3]; muscle, control rats, 2 hr.): 0.03 ± 0.00 % I.D./gram
% I.D./gram ([3]; muscle, cycloheximide-treated rats, 5 min.): 0.09 ± 0.00 % I.D./gram
% I.D./gram ([3]; muscle, cycloheximide-treated rats, 1 hr.): 0.10 ± 0.02 % I.D./gram
% I.D./gram ([3]; muscle, cycloheximide-treated rats, 2 hr.): 0.06 ± 0.00 % I.D./gram
uptake in spleen, treated rats higher than control ([3]; spleen, 1-hour post-i.v. injection, cycloheximide-treated vs control): 184%
% I.D./gram ([3]; spleen, control rats, 5 min.): 1.14 ± 0.08 % I.D./gram
% I.D./gram ([3]; spleen, control rats, 1 hr.): 0.15 ± 0.05 % I.D./gram
% I.D./gram ([3]; spleen, control rats, 2 hr.): 0.06 ± 0.01 % I.D./gram
% I.D./gram ([3]; spleen, cycloheximide-treated rats, 5 min.): 2.24 ± 0.41 % I.D./gram
% I.D./gram ([3]; spleen, cycloheximide-treated rats, 1 hr.): 0.43 ± 0.05 % I.D./gram
% I.D./gram ([3]; spleen, cycloheximide-treated rats, 2 hr.): 0.11 ± 0.03 % I.D./gram
% I.D./gram ([3]; thymus, control rats, 5 min.): 0.23 ± 0.07 % I.D./gram
% I.D./gram ([3]; thymus, control rats, 1 hr.): 0.09 ± 0.01 % I.D./gram
% I.D./gram ([3]; thymus, control rats, 2 hr.): 0.04 ± 0.00 % I.D./gram
% I.D./gram ([3]; thymus, cycloheximide-treated rats, 5 min.): 0.38 ± 0.10 % I.D./gram
% I.D./gram ([3]; thymus, cycloheximide-treated rats, 1 hr.): 0.12 ± 0.02 % I.D./gram
% I.D./gram ([3]; thymus, cycloheximide-treated rats, 2 hr.): 0.06 ± 0.01 % I.D./gram
microPET uptake in the liver [4]: higher uptake
